This passage reports IC50 and Ki results from ChEMBL document CHEMBL3091358, “Structures of human acetylcholinesterase bound to dihydrotanshinone I and territrem B show peripheral site flexibility” (ACS Med Chem Lett, 2013).

The structures appear in SMILES notation.

Test [1] has as its target T1, Acetylcholinesterase (Homo sapiens, UniProt P22303). Put plainly: Inhibition of acetylcholinesterase (unknown origin).
Test [2] concerns the target T1, Acetylcholinesterase. Put plainly: Inhibition of human acetylcholinesterase.

T1 sequence (P22303 whole entry): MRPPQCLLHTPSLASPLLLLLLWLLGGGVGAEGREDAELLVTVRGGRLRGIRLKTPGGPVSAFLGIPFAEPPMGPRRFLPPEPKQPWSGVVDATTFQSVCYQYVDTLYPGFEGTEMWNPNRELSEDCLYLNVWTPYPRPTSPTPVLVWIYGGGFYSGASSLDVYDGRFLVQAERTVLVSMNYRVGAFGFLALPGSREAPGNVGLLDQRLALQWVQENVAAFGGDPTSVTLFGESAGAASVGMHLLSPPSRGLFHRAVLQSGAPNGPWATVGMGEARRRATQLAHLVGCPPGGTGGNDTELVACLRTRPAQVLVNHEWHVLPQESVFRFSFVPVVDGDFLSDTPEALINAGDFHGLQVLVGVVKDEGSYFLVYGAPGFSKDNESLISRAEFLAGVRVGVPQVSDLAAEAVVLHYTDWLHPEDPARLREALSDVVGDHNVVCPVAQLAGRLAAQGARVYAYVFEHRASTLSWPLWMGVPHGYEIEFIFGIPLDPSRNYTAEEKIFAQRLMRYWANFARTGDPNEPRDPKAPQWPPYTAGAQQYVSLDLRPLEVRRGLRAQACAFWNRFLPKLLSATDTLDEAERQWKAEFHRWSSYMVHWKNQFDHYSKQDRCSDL

In turn, `Cc1cccc2c3c(ccc12)C1=C(C(=O)C3=O)[C@@H](C)CO1` [DIHYDROTANSHINONE I] had an IC50 against Acetylcholinesterase [1] of 1000 nM. On Acetylcholinesterase [2], this compound returned a Ki of 600 nM.
Consider `Cc1coc2c1C(=O)C(=O)c1c-2ccc2c1CCCC2(C)C` [TANSHINONE IIA], for which, on Acetylcholinesterase [1], the 50% inhibitory concentration (IC50) was more than 140000 nM.
Consider `Cc1coc2c1C(=O)C(=O)c1c-2ccc2c(C)cccc12` [TANSHINONE I], for which, at Acetylcholinesterase [1], the 50% inhibitory concentration (IC50) is more than 50000 nM.
